Test results taken from the CheMixHub viscosity set.
± gives the uncertainty stated by the source.

Assay: xn = mol fraction of the nth substance listed

## CC(C)C#N + c1ccccc1
303.15 K, 101 kPa, x2 = 0.1007
  viscosity: 0.459 ± 0.008 mPa·s
303.15 K, 101 kPa, x2 = 0.2057
  viscosity: 0.458 ± 0.008 mPa·s
303.15 K, 101 kPa, x2 = 0.307
  viscosity: 0.46 ± 0.008 mPa·s
303.15 K, 101 kPa, x2 = 0.3954
  viscosity: 0.465 ± 0.007 mPa·s
303.15 K, 101 kPa, x2 = 0.4991
  viscosity: 0.472 ± 0.007 mPa·s
303.15 K, 101 kPa, x2 = 0.5899
  viscosity: 0.483 ± 0.007 mPa·s
303.15 K, 101 kPa, x2 = 0.6925
  viscosity: 0.497 ± 0.007 mPa·s
303.15 K, 101 kPa, x2 = 0.7959
  viscosity: 0.516 ± 0.007 mPa·s
303.15 K, 101 kPa, x2 = 0.8965
  viscosity: 0.539 ± 0.007 mPa·s
308.15 K, 101 kPa, x2 = 0.1007
  viscosity: 0.43 ± 0.008 mPa·s
308.15 K, 101 kPa, x2 = 0.2057
  viscosity: 0.432 ± 0.008 mPa·s
308.15 K, 101 kPa, x2 = 0.307
  viscosity: 0.432 ± 0.007 mPa·s
308.15 K, 101 kPa, x2 = 0.3954
  viscosity: 0.434 ± 0.007 mPa·s
308.15 K, 101 kPa, x2 = 0.4991
  viscosity: 0.442 ± 0.007 mPa·s
308.15 K, 101 kPa, x2 = 0.5899
  viscosity: 0.451 ± 0.007 mPa·s
308.15 K, 101 kPa, x2 = 0.6925
  viscosity: 0.462 ± 0.007 mPa·s
308.15 K, 101 kPa, x2 = 0.7959
  viscosity: 0.481 ± 0.007 mPa·s
308.15 K, 101 kPa, x2 = 0.8965
  viscosity: 0.498 ± 0.007 mPa·s

## NC=O + CC(C)(C)O
308 K, 101 kPa, x1 = 0.1112
  viscosity: 2.784 mPa·s
308 K, 101 kPa, x1 = 0.2296
  viscosity: 3.129 mPa·s
308 K, 101 kPa, x1 = 0.3735
  viscosity: 3.402 mPa·s
308 K, 101 kPa, x1 = 0.5054
  viscosity: 3.512 mPa·s
308 K, 101 kPa, x1 = 0.6138
  viscosity: 3.505 mPa·s
308 K, 101 kPa, x1 = 0.7045
  viscosity: 3.383 mPa·s
308 K, 101 kPa, x1 = 0.7815
  viscosity: 3.224 mPa·s
308 K, 101 kPa, x1 = 0.8476
  viscosity: 3.024 mPa·s
308 K, 101 kPa, x1 = 0.9051
  viscosity: 2.817 mPa·s

## OCCCl + CCCCO
298.15 K, 101.33 kPa, x1 = 0.097
  viscosity: 2.59 ± 0.059 mPa·s
298.15 K, 101.33 kPa, x1 = 0.1922
  viscosity: 2.593 ± 0.059 mPa·s
298.15 K, 101.33 kPa, x1 = 0.2941
  viscosity: 2.597 ± 0.059 mPa·s
298.15 K, 101.33 kPa, x1 = 0.3928
  viscosity: 2.616 ± 0.059 mPa·s
298.15 K, 101.33 kPa, x1 = 0.4937
  viscosity: 2.641 ± 0.06 mPa·s
298.15 K, 101.33 kPa, x1 = 0.5925
  viscosity: 2.672 ± 0.061 mPa·s
298.15 K, 101.33 kPa, x1 = 0.6943
  viscosity: 2.702 ± 0.061 mPa·s
298.15 K, 101.33 kPa, x1 = 0.7957
  viscosity: 2.731 ± 0.062 mPa·s
298.15 K, 101.33 kPa, x1 = 0.8961
  viscosity: 2.781 ± 0.063 mPa·s
303.15 K, 101.33 kPa, x1 = 0.097
  viscosity: 2.29 ± 0.052 mPa·s
303.15 K, 101.33 kPa, x1 = 0.1922
  viscosity: 2.25 ± 0.052 mPa·s
303.15 K, 101.33 kPa, x1 = 0.2941
  viscosity: 2.271 ± 0.052 mPa·s
303.15 K, 101.33 kPa, x1 = 0.3928
  viscosity: 2.288 ± 0.052 mPa·s
303.15 K, 101.33 kPa, x1 = 0.4937
  viscosity: 2.316 ± 0.053 mPa·s
303.15 K, 101.33 kPa, x1 = 0.5925
  viscosity: 2.363 ± 0.054 mPa·s
303.15 K, 101.33 kPa, x1 = 0.6943
  viscosity: 2.38 ± 0.054 mPa·s
303.15 K, 101.33 kPa, x1 = 0.7957
  viscosity: 2.4 ± 0.055 mPa·s
303.15 K, 101.33 kPa, x1 = 0.8961
  viscosity: 2.428 ± 0.055 mPa·s
308.15 K, 101.33 kPa, x1 = 0.097
  viscosity: 2.028 ± 0.047 mPa·s
308.15 K, 101.33 kPa, x1 = 0.1922
  viscosity: 2.029 ± 0.047 mPa·s
308.15 K, 101.33 kPa, x1 = 0.2941
  viscosity: 2.026 ± 0.047 mPa·s
308.15 K, 101.33 kPa, x1 = 0.3928
  viscosity: 2.027 ± 0.047 mPa·s
308.15 K, 101.33 kPa, x1 = 0.4937
  viscosity: 2.047 ± 0.047 mPa·s
308.15 K, 101.33 kPa, x1 = 0.5925
  viscosity: 2.075 ± 0.048 mPa·s
308.15 K, 101.33 kPa, x1 = 0.6943
  viscosity: 2.1 ± 0.048 mPa·s
308.15 K, 101.33 kPa, x1 = 0.7957
  viscosity: 2.12 ± 0.049 mPa·s
308.15 K, 101.33 kPa, x1 = 0.8961
  viscosity: 2.14 ± 0.049 mPa·s
